Laboratory results taken from ChEMBL document CHEMBL3112510, “Optimization, pharmacophore modeling and 3D-QSAR studies of sipholanes as breast cancer migration and proliferation inhibitors” (Eur J Med Chem, 2014).
pIC50: −log10 of the molar value.

Tests used:
MDA-MB-231 [1] = assay: Antiproliferative activity against human MDA-MB-231 cells after 72 hrs by MTT assay; details: MDA-MB-231, 72 h
MDA-MB-231 [2] = assay: Antimigratory activity in human MDA-MB-231 cells after 24 hrs by wound healing assay; details: MDA-MB-231, 24 h; for IC50: read-out: pIC50 (converted)
MCF7 = assay: cells; details: Homo sapiens, MCF7, 72 h

pIC50 (MDA-MB-231 [1])	pIC50 (MDA-MB-231 [2])	IC50 (MDA-MB-231 [2])	pIC50 (MCF7)	SMILES
4.74	4.97	10.6 µM	4.60	CC1=CC[C@H]2[C@H](CC[C@]2(C)O)C(C)(C)[C@@H]1CC[C@H]1[C@]2(C)CC[C@H](OC(=O)c3ccncc3)C(C)(C)O[C@H]2CC[C@@]1(C)O
< 4.30	4.55	28.1 µM	< 4.30	CC1=CCC2C(CC[C@@]2(C)O)C(C)(C)C1CC[C@@H]1[C@@]2(C)CCC(=O)C(C)(C)O[C@@H]2CC[C@]1(C)O (stereo partly specified) [SIPHOLENONE A]
< 4.30	4.33	46.7 µM	< 4.30	CC1=CC[C@H]2[C@@H]1CC=C(C)[C@@H](CCC1=C(C)CC[C@@H]3OC(C)(C)[C@@H](O)CC[C@@]13C)C2(C)C
4.56	4.55	28.5 µM	4.59	CC1=CC[C@H]2[C@H](CC[C@]2(C)O)C(C)(C)[C@@H]1CC[C@H]1[C@]2(C)CC/C(=N/OC(=O)c3ccccc3)C(C)(C)O[C@H]2CC[C@@]1(C)O
4.74	5.14	7.19 µM	4.64	CC1=CC[C@H]2[C@@H]1CC=C(C)[C@@H](CC[C@H]1[C@]3(C)CC[C@H](OC(=O)c4ccccc4)C(C)(C)O[C@H]3CC[C@@]1(C)O)C2(C)C
< 4.30	< 4.30	67.3 µM	< 4.30	CC(C)=CCC[C@@]1(C)C(CC[C@H]2[C@]3(C)CC[C@H](O)C(C)(C)O[C@H]3CC[C@@]2(C)O)=C(C)CC[C@H]1O [SIPHONELLINOL D]
4.99	5.28	5.3 µM	4.62	CC1=CC[C@H]2[C@H](CC[C@]2(C)O)C(C)(C)[C@@H]1CC[C@H]1[C@]2(C)CC[C@H](OC(=O)c3ccc(Cl)cc3)C(C)(C)O[C@H]2CC[C@@]1(C)O
< 4.30	< 4.30	87.5 µM	< 4.30	CC1(C)O[C@H]2CC[C@@](C)(O)[C@@H](CC[C@@H]3C(CO)=CC[C@H]4[C@H](CC[C@]4(C)O)C3(C)C)[C@]2(C)CC[C@@H]1O
< 4.30	4.43	37.5 µM	4.35	CC1=CCC2C(CC[C@@]2(C)O)C(C)(C)C1CC[C@@H]1[C@@]2(C)CC[C@@H](O)C(C)(C)O[C@@H]2CC[C@]1(C)O (stereo partly specified) [SIPHOLENOL A]
< 4.30	< 4.30	36.2 µM	< 4.30	CC1(C)O[C@H]2CC[C@@](C)(O)[C@@H](CC[C@H]3C(C)(C)[C@@]4(O)CC[C@](C)(O)[C@H]4C[C@H]4O[C@]43C)[C@]2(C)CC[C@@H]1O
< 4.30	4.35	45 µM	4.40	CC1=C(CC[C@H]2[C@]3(C)CC[C@H](O)C(C)(C)O[C@H]3CC[C@@]2(C)O)[C@@H]2[C@H](C[C@H]1C(=O)O)[C@@](C)(O)CCC2(C)C
4.37	< 4.30	52.7 µM	4.33	CC1=CC[C@H]2[C@H](CC[C@]2(C)O)C(C)(C)[C@@H]1CC[C@H]1[C@]2(C)CC/C(=N/O)C(C)(C)O[C@H]2CC[C@@]1(C)O
4.48	4.93	11.8 µM	< 4.30	CC1=CC[C@H]2[C@H](CC[C@]2(C)O)C(C)(C)[C@@H]1CC[C@H]1[C@]2(C)CC[C@H](OC(=O)c3ccc(C)cc3)C(C)(C)O[C@H]2CC[C@@]1(C)O
4.58	4.69	20.3 µM	4.41	CC(=O)O[C@H]1CC[C@]2(C)[C@H](CC[C@@](C)(O)[C@H]2CC[C@@H]2C(C)=CC[C@H]3[C@H](CC[C@]3(C)OC(C)=O)C2(C)C)OC1(C)C
4.55	4.74	18 µM	< 4.30	CC1=CC[C@H]2[C@H](CC[C@]2(C)O)C(C)(C)[C@@H]1CC[C@H]1[C@]2(C)CC[C@H](OC(=O)CCC(=O)O)C(C)(C)O[C@H]2CC[C@@]1(C)O
< 4.30	< 4.30	77.8 µM	< 4.30	CC1(C)O[C@H]2CC[C@@](C)(O)[C@@H](CC[C@@H]3C(CO)=CC[C@H]4[C@H](CC[C@]4(C)O)C3(C)C)[C@]2(C)CCC1=O
4.54	4.91	12.2 µM	< 4.30	CC1=CC[C@H]2[C@H](CC[C@]2(C)O)C(C)(C)[C@@H]1CC[C@H]1[C@]2(C)CC[C@H](OCc3ccccc3)C(C)(C)O[C@H]2CC[C@@]1(C)O
4.45	4.87	13.4 µM	< 4.30	CC1=CC[C@H]2[C@@H]1CC=C(C)[C@@H](CC[C@H]1[C@]3(C)CC[C@H](OCc4ccccc4)C(C)(C)O[C@H]3CC[C@@]1(C)O)C2(C)C

pIC50 (MDA-MB-231 [1])	pIC50 (MDA-MB-231 [2])	IC50 (MDA-MB-231 [2])	pIC50 (MCF7)	SMILES
< 4.30	4.48	33 µM	< 4.30	CC1(C)O[C@H]2CC[C@@](C)(O)[C@@H](CC[C@H]3C(C)(C)[C@@]4(O)CC[C@](C)(O)[C@H]4C[C@H]4O[C@]43C)[C@]2(C)CCC1=O
< 4.30	< 4.30	59 µM	4.66	CC1=C(CC[C@H]2[C@]3(C)CC[C@H](O)C(C)(C)O[C@H]3CC[C@@]2(C)O)[C@](C)(C/C=C/C(C)(C)O)[C@H](O)CC1
< 4.30	4.37	42.6 µM	< 4.30	CC1(C)O[C@H]2CC[C@@](C)(O)[C@@H](CC[C@@H]3C(C=O)=CC[C@H]4[C@H](CC[C@]4(C)O)C3(C)C)[C@]2(C)CCC1=O
< 4.30	4.32	47.5 µM	< 4.30	C[C@H]1C(=O)C[C@H]2[C@H](CC[C@]2(C)O)C(C)(C)[C@@H]1CC[C@H]1[C@]2(C)CC[C@H](O)C(C)(C)O[C@H]2CC[C@@]1(C)O
4.39	4.86	13.9 µM	4.61	CC1=CC[C@H]2[C@H](CC[C@]2(C)O)C(C)(C)[C@@H]1CC[C@H]1[C@]2(C)CC[C@H](OC(=O)NCc3ccccc3)C(C)(C)O[C@H]2CC[C@@]1(C)O
< 4.30	< 4.30	69 µM	< 4.30	C[C@@H]1C(=O)C[C@H]2[C@@H](/C1=C/C[C@H]1[C@]3(C)CC[C@H](O)C(C)(C)O[C@H]3CC[C@@]1(C)O)C(C)(C)CC[C@]2(C)O
4.90	5.23		4.66	CC1=CC[C@H]2[C@@H]1CC=C(C)[C@@H](CC[C@H]1[C@]3(C)CC[C@H](OC(=O)c4ccc(Cl)cc4)C(C)(C)O[C@H]3CC[C@@]1(C)O)C2(C)C
4.72	5.02	9.51 µM	< 4.30	CC1=CC[C@H]2[C@@H]1CC=C(C)[C@@H](CC[C@H]1[C@]3(C)CC[C@H](OC(=O)c4ccncc4)C(C)(C)O[C@H]3CC[C@@]1(C)O)C2(C)C
< 4.30	4.55	28 µM	< 4.30	C[C@@H]1CC[C@H]2[C@@H](/C1=C/C[C@H]1[C@]3(C)CCC(=O)C(C)(C)O[C@H]3CC[C@@]1(C)O)C(C)(C)CC[C@]2(C)O
< 4.30	< 4.30	92.9 µM	< 4.30	CC1(C)CC[C@](C)(O)[C@H]2C[C@H](O)[C@]3(C)O[C@]3(CC[C@H]3[C@]4(C)CC[C@H](O)C(C)(C)O[C@H]4CC[C@@]3(C)O)[C@H]21
4.49	4.91	12.3 µM	< 4.30	CC1=CC[C@H]2[C@@H]1CC=C(C)[C@@H](CC[C@H]1[C@]3(C)CC[C@H](OC(=O)c4ccc(C)cc4)C(C)(C)O[C@H]3CC[C@@]1(C)O)C2(C)C
< 4.30	< 4.30	22.4 µM	< 4.30	CC1=CC[C@H]2[C@H](CC[C@]2(C)O)C(C)(C)[C@@H]1CC[C@@H]1[C@](C)(O)[C@H](O)C[C@@H]2OC(C)(C)[C@@H](O)CC[C@]21C
< 4.30	4.42	38.3 µM	< 4.30	C[C@H]1C(=O)C[C@@H]2[C@@](C)(O)CC[C@]2(O)C(C)(C)[C@@H]1CC[C@H]1[C@]2(C)CCC(=O)C(C)(C)O[C@H]2CC[C@@]1(C)O
< 4.30	4.32	48 µM	< 4.30	CC1=CC[C@H]2[C@H](CC[C@]2(C)O)C(C)(C)[C@@H]1CC[C@H]1[C@]2(C)CC[C@@H](O)O[C@H]2CC[C@@]1(C)O
4.41	4.80	16 µM	4.36	CC(=O)O[C@H]1CC[C@]2(C)[C@H](CC[C@@](C)(O)[C@H]2CC[C@@H]2C(C)=CC[C@@H]3C(C)=CC[C@@H]3C2(C)C)OC1(C)C
4.53	4.68		< 4.30	CC1=CC[C@H]2[C@@H]1CC=C(C)[C@@H](CC[C@H]1[C@]3(C)CC[C@H](OC(=O)CCC(=O)O)C(C)(C)O[C@H]3CC[C@@]1(C)O)C2(C)C
< 4.30	< 4.30	84.9 µM	< 4.30	CC1=C(CC[C@H]2[C@]3(C)CC[C@H](O)C(C)(C)O[C@H]3CC[C@@]2(C)O)[C@@H]2[C@H](CC1=O)[C@@](C)(O)CCC2(C)C

SMILES	pIC50 (MDA-MB-231 [1])	pIC50 (MDA-MB-231 [2])	IC50 (MDA-MB-231 [2])	pIC50 (MCF7)
CC1=C(CC[C@H]2[C@]3(C)CC[C@H](O)C(C)(C)O[C@H]3CC[C@@]2(C)O)[C@](C)(C/C=C/C(C)(C)OO)[C@H](O)CC1	< 4.30	< 4.30	54 µM	4.56
C=C(C)C(CC[C@@]1(C)C(CC[C@H]2[C@]3(C)CC[C@H](O)C(C)(C)O[C@H]3CC[C@@]2(C)O)=C(C)CC[C@H]1O)OO (stereo partly specified) [SIPHONELLINOL E]	< 4.30	4.41	39 µM	4.51
